Four compounds from patent US7470660B2, “Treatment for dark adaptation” (The Regents of the University of California, priority 2001, dated 2008) can be followed below.

The subject of assay [1] is apo E secretion from RPE cells. Put plainly: Apo E secretion from RPE cells, ELISA. The class given is cell-based, human. The conditions noted are these: 36 hours, serum free DMEM; 10^-7 M T3; 2.5x10^-6 M 22(R) hydroxycholesterol; 10^-7 M cis retinoic acid; alone and in combination; FIG. 14. The protocol: RPE cells were treated for 36 hours on Transwell® plates with serum free DMEM +/− the drugs indicated. Control refers to no drug addition, T refers to 10^−7 M T3; HC refers to 2.5×10^−6 M 22(R) hydroxycholesterol; RA refers to 10^−7 M cis retinoic acid. N=6, * indicates p<0.05 (two-tailed t-test) compared to Control.
Media samples treated with 0.1% Tween-20 containing 1% bovine serum albumin were incubated (37° C., 4 h) in 96-well plates previously coated with apo E-affinity purified goat anti-apo E antibody. Apo E was detected using a secondary antibody-peroxidase conjugate and 3.3.5.5′-[…] (TMB) substrate. Optical density was measured at 450 nm. The assay was calibrated with purified plasma apo E. The dynamic range of the assay was 1-40 ng/ml apo E with a CV<5%.
(An ELISA detects its analyte on a solid surface through an enzyme-linked reagent.)

Assay [2] concerns apo E secretion from RPE cells. Nature of the assay: Apo E secretion into basal media of RPE cells, western blot. The assay is classed as cell-based, human. The settings on record: 36 hour incubation, both chambers, T3 10^-7 M, 22 (R) hydroxycholesterol 2.5x10^-6 M, cis retinoic acid 10^-7 M (10^-6 M elsewhere in the source), FIG. 6. Background: A western blot detects proteins with antibodies after separation by electrophoresis.
Method: Primary cultures of normal human RPE cells from passages 5 to 10 were used for the experiments described. RPE cells were grown to confluence on laminin-coated 6 well Transwell tissue culture plates (Costar) with DMEM-H21 containing 10% fetal bovine serum, 2 mM glutamine, 50 μg/ml gentamicin and 2.5 mg/ml fungizone in the top and bottom chambers. […] Cells were grown for at least 1 week at confluence prior to drug treatment. Cells to be treated with drugs were incubated in serum free DMEM-H21 prior to drug addition. Drug treatments were in serum free DMEM-H21 with or without 10^−7 M thyroid hormone (T3), 2.5×10^−6 M 22 (R) hydroxycholesterol, or 10^−7 M cis retinoic acid in both chambers for 36 hours.
Total protein content was determined by a modified Lowry assay (Bio-Rad DC kit, Richmond, Calif.). Concentrated media (50 μg protein) was made to Start Buffer (0.025 M NaCl, 0.010 M tris (pH 8.5), 5 mM MnCl2) and adsorbed onto a 0.1 ml column containing Heparin-Sepharose CL-4B (Pharmacia, Uppsala, Sweden). Following a 2 ml wash in Start Buffer, the apo E containing bound fraction was eluted with 0.5M NaCl in Start buffer. The eluate was concentrated to 20 μl and buffer-exchanged to SalEN by centrifugal ultrafiltration (Biomax, 5k MCO, Millipore, Bedford, Mass.). Apo E was resolved by tris-tricine buffered SDS-PAGE (5-25% linear acrylamide gradient) and proteins electrophoetically transferred (55V, 18 h) to nitrocelluose membrane filters (Schleicher and Shuell, Keen, N.H.). Membranes were blocked with 10% bovine serum albumin at room temperature and probed with 1% goat anti-human apo E antiserum (18 h, 3° C.) prepared in 0.15% NaCl, 1 mM EDTA (pH 7.4), 0.1% Triton X-100 (SalET). The primary-bound anti-apo E antibodies were detected colorimetrically with horseradish peroxidase conjugated rabbit anti-goat Ig (H+L) and NiCl2-enhanced diaminobenzine staining. Stained bands were compared densitometrically from the digitized scanned image (NIH Image, v.1.62).
In order to distinguish apical (A) from basally (B) secreted apo E, RPE cells were cultured on laminin-coated Transwell plates. […] Total protein and apo E-specific protein concentrations were measured from media pooled and concentrated from 3-6 replicate wells. To assess apo E-specific secretion, apo E was purified from conditioned media by heparin-sepharose affinity chromatography and visualized by western blotting.
Since RPE cells express lxr α as well as thyroid hormone receptors (TRs) and retinoid-X-receptors (RXRs), the effect of 10^−7 M T3, 2.5×10^−6 M 22 (R) hydroxycholesterol (HC) (an lxr α agonist), or 10^−7 M cis retinoic acid (cRA) (an RXR agonist) on apo E secretion from RPE cells was tested. FIG. 6 illustrates the same experimental procedure as described above, but with basal and apical media both containing the following compounds for a 36 hour incubation: T3 (10^−7) M (T); 9 cis-RA (10^−6) M (RA); and 22 (R) hydroxycholesterol 2.5 (10^−6) M (HC).
Control (C) refers to no drug addition; T refers to 10^−7 M T3; RA refers to 10^−7 M cis retinoic acid; and HC refers to 2.5×10^−6 M 22(R) hydroxycholesterol. Basal media from 3 wells were combined, concentrated, and apo E was detected by western blotting.

Assay [3] has as its system cultured human RPE cells. Put plainly: 14C-DHA labeled POS efflux into basal media after drug treatment. The conditions noted are these: 36 hours; 10^-7 M T3, 2.5x10^-5 M 22 (R) hydroxycholesterol or 10^-7 M cis retinoic acid; basal medium 1 mg/ml HDL; FIG. 10. The assay is classed as cell-based. The protocol:
Bovine outer photoreceptor outer segments (POS) were labeled by incubating […] Coenzyme A, ATP, Mg^2+, and [^14C]-DHA. Cells grown on laminin coated Transwell plates were incubated with 12 μg/ml labeled POS in the apical chamber for 36 hours in medium containing 10% lipoprotein deficient fetal bovine serum. The basal medium was subjected to scintillation counting to determine the amount of [^14C] labeled lipids transported through the RPE cells.
This experiment determines whether compound administration can upregulate efflux of labeled POS residues to HDL, particularly by showing regulation of ^14C-DHA labeled POS efflux into basal media. An assay similar to that described in Example 4 is utilized; however, in this Example the cells were treated with T3, 9 cis-retinoic acid, and 22 (R) hydroxycholesterol in the concentrations described above for 36 hours. Total radioactivity (cpm) in the absence of HDL purification was determined by liquid scintillation counting of the basal media.
Specifically, cells were grown for 1 to 2 weeks at confluence on Transwell plates. ^14C-labeled POS […] were added to the apical medium. The apical and basal medium comprised either 10^−7 M T3, 2.5×10^−5 M 22 (R) hydroxycholesterol, or 10^−7 M cis retinoic acid. The basal medium contained 1 mg/ml HDL. After 36 hours the basal medium was collected and ^14C counts were determined by scintillation counting.

Assay [4] deals with Human retinal pigment epithelial cells. Put plainly: 14C-labeled lipid efflux from RPE cells with HDL, apoA-I or apoA-I vesicles. The assay is classed as cell-based. The conditions noted are these: basal chamber, 36 hours, vs Control; FIG. 19. As for the experimental part: The present inventors have created liposomes comprising apoA-I (artificial preβ1 HDL). Artificial discoidal apoA-I liposomes comprising purified human plasma apoAI, the saturated phospholipid dimyristoyl-L-α-phoshatidylcholine (DMPC) and cholesterol were constructed by the sodium cholate dialysis method. Liposomes were prepared using a molar ratio of approximately 1/5/95, apoA-I/free cholesterol/DMPC. Human retinal pigment epithelial cells grown on 6 well laminin coated Transwell® plates were fed ^14C-docosahexaenoic acid labeled photoreceptor outer segments in medium containing 5% lipoprotein free fetal bovine serum for 36 hours (apical chamber). Basal chambers contained serum free medium and either no human high density lipoprotein (HDL) (Control), 100 μg/ml of human HDL, pure human apoA-I, or human apoA-I vesicles. An aliquot of the basal medium was subjected to liquid scintillation counting. Wells were treated in triplicate. HDL stimulated ^14C-labeled lipid efflux by about 60%.

Entries after “also recorded” stand apart in the source; their conditions may differ.

Regarding `CC(C)CC[C@@H](O)[C@@H](C)[C@H]1CC[C@H]2[C@@H]3CC=C4C[C@@H](O)CC[C@]4(C)[C@H]3CC[C@]12C` [22 (R) hydroxycholesterol], in assay [1], the “apo E secretion (ELISA)” value is “upregulate apo E secretion”. In addition, the “basal Apo E expression/secretion (Western blot of basal media)” value (shortened to “basal Apo E expression/secretion”) in assay [2] is given as “increased basal expression of Apo E”; in assay [2] (listed as HC), “stimulate basal apo E secretion”. For the same compound, the “transport of 14C-labeled POS to the basal medium” value (from here on “transport of 14C-labeled POS”) in assay [3] was “increased transport of ^14C-labeled POS to the basal medium”.

`N[C@@H](Cc1cc(I)c(Oc2ccc(O)c(I)c2)c(I)c1)C(=O)O` [T3, 3,5,3′-L-triiodothyronine]: the “apo E secretion (ELISA)” value in assay [1] is reported as “upregulate apo E secretion”. The “basal Apo E expression/secretion” value in assay [2] is recorded as “increased basal expression of Apo E; also recorded: stimulate basal apo E secretion”. For the same compound, the “transport of 14C-labeled POS” value in assay [3] is on record as “increased transport of ^14C-labeled POS to the basal medium”.

Turning to `CC1=C(/C=C/C(C)=C\C=C\C(C)=C\C(=O)O)C(C)(C)CCC1` [cis retinoic acid, 9 cis-retinoic acid], the “apo E secretion (ELISA)” value in assay [1] is “upregulate apo E secretion”. For the same compound, the “basal Apo E expression/secretion” value in assay [2] (listed as 9 cis-RA) was “increased basal expression of Apo E”; in assay [2] (listed as RA) it was “stimulate basal apo E secretion”. Further, the “transport of 14C-labeled POS” value in assay [3] is “increased transport of ^14C-labeled POS to the basal medium”.

Take “ApoA-I: pure human apoA-I, purified from human plasma; major lipoprotein component of HDL”: in assay [4], the “stimulation of 14C-labeled lipid efflux (in words)” value is “appeared to stimulate”.
